Test [1] deals with T1, Retinoic acid receptor alpha (Homo sapiens, UniProt P10276).
T1 sequence (P10276 whole entry): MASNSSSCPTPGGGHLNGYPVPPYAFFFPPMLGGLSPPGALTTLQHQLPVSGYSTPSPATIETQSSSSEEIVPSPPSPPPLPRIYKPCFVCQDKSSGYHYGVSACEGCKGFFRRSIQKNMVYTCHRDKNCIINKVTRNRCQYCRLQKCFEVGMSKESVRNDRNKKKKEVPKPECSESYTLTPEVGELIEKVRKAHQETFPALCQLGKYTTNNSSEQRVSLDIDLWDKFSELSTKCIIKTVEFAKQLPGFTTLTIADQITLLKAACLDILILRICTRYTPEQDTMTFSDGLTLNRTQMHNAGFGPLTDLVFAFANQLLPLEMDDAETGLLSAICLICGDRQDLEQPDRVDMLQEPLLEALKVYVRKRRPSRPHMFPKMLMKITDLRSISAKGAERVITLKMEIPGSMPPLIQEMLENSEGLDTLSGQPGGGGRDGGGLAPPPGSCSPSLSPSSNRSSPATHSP
Nature of the test: Binding affinity for baculovirus-expressed Retinoic acid receptor RAR alpha.

Test [2] has as its target T2, Retinoic acid receptor beta (Homo sapiens, UniProt P10826).
T2 sequence (P10826 whole entry): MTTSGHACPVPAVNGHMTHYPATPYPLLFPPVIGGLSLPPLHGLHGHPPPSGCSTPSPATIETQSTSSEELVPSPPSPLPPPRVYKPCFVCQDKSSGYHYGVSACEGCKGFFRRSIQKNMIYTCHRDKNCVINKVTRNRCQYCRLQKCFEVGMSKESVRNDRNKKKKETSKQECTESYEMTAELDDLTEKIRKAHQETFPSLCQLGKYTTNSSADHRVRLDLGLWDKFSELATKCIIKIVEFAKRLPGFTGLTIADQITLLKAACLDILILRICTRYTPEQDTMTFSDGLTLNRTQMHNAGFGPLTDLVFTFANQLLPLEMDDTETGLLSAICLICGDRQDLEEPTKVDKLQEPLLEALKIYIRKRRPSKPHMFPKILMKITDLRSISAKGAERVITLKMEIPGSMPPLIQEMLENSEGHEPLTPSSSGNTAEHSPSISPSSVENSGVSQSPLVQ
Nature of the test: Binding affinity for baculovirus-expressed Retinoic acid receptor RAR beta.

Test [3] addresses T3, Retinoic acid receptor gamma (Homo sapiens, UniProt P13631).
T3 sequence (P13631 whole entry): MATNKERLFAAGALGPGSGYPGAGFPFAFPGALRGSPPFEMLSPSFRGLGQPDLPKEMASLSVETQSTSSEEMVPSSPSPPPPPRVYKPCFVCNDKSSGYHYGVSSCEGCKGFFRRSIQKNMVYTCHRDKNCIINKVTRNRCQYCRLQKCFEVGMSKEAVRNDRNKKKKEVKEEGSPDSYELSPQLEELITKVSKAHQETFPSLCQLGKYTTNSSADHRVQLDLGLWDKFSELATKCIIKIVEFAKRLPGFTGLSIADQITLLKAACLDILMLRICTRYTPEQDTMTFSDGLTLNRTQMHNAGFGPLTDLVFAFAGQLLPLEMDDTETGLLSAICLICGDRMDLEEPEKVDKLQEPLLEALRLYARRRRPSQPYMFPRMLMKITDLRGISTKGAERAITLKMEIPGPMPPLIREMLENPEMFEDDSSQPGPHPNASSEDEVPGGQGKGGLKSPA
As to the kind of experiment: Binding affinity for baculovirus-expressed Retinoic acid receptor RAR gamma.

The structures appear in SMILES notation.

A word on the Kd: it is the concentration at which binding is half-saturated. Read a high Kd as weaker binding. In the case of `CC1(C)CCC(C)(C)c2c1cc(C(=O)Nc1ccc(C(=O)O)c(F)c1)c(O)c2Br`, the Kd in test [1] was 0.0044 µM; in test [2], 3.04 µM; in test [3] it was over 30 µM.
Consider `CC1(C)CCC(C)(C)c2c1cc(C(=O)Nc1cc(F)c(C(=O)O)c(F)c1)c(O)c2Br`, for which the equilibrium dissociation constant (Kd) in test [1] was 0.0084 µM; in test [2], 17.4 µM; in test [3] it was over 30 µM.

For the origin of these results see ChEMBL document CHEMBL1129255, “Identification of a retinoic acid receptor alpha subtype specific agonist” (J Med Chem, 1996).
